For one data set, the system named is SDH enzyme activity. As to the kind of experiment: SDH staining of hind limb muscles, high fat diet model. The settings on record: high fat diet with 0.5% compound, 3 months. The format is in vivo, mouse. The text has this:
(§1) To prepare the PGC-1α-inhibited model, 3-month-old mouse (female, body weight of 20 g) is fed with high fat diet, in which fat is increased to 60%, compared to a negative control group, for 5 days (short-term effect) or 3 months (long-term effect). The negative control group is fed with a general diet. Farnesol is mixed in the high fat diet at a content of 0.5% (weight of farnesol/weight of diet). A positive control group is fed with high fat diet containing a type II diabetes drug, metformin at a content of 0.5% (weight of metformin/weight of diet). Mice are fed with the general diet, the high fat diet, and the high fat diet containing farnesol or metformin for 3 months, and then hind limbs are removed to analyze muscle differentiation and mitochondrial enzyme activity.

Data set [1] deals with AAV-PARIS WT or C631S-introduced tibialis anterior muscles. The data set is described as follows: SDH staining of muscles introduced with AAV-PARIS WT or AAV-PARIS C631S. The format is in vivo, mouse. The conditions noted are these: 5-month-old mice, farnesol diet 1 week, 4 days after virus. As to the method:
5-month-old C57BL/6 male mice (body weight of 22 g) are fed with a control diet or a farnesol-containing diet for 1 week, and then AAV-GFP, AAV-PARIS WT or AAV-PARIS C631S virus is injected into tibialis anterior muscles. Feeding conditions, not mentioned, are the same as in Section 2 of Example 2. After 4 days, the muscles are collected and histological staining is performed to analyze mitochondrial enzyme activity. The staining is performed by SDH enzyme activity staining. Viral transduction efficiency is evaluated by GFP fluorescence.

Data set [2] concerns the target T1, human PARIS (WT, C631S) (Homo sapiens, UniProt Q6NUN9, C631S).
T1 construct: Human full length PARIS cDNA (IMAGE: 30347892); expressed in transfected cells; host or cells: C2C12 myoblasts, pCMV-Tag2A (Stratagene)
The data set is described as follows: Immunoprecipitation of PARIS WT and PARIS C631S mutant in C2C12 myoblasts. The format is cell-based. The settings on record: C2C12 with FLAG-PARIS C631S, 0.1 uM farnesol, 24 hours. The method, then:
(§2) To examine whether cysteine residues of CGLS sequence (631-634) of an amino acid sequence (SEQ ID NO: 11) of human PARIS are farnesylation sites, a FLAG-PARIS wild-type (WT) gene or a FLAG-PARIS C631S mutant (hereinafter, referred to as “MT”) gene is introduced into C2C12 myoblasts in the presence of DMSO or 0.1 uM farnesol, and the gene is expressed in C2C12 myoblasts by culturing them in DMEM containing 10% FBS for 24 hours. Immunoprecipitation and promoter activity analysis of a cell lysate are performed. The site of amino acid sequence (SEQ ID NO: 10) of mouse PARIS corresponding to CGLS sequence (631-634) of the amino acid sequence (SEQ ID NO: 11) of human PARIS is residues at positions 638-641. This CGLS sequence is conserved in mammals as well as humans and mice, and thus C of CGLS which is located at the C-terminus is a farnesylation site regardless of the length of the sequence.
(§3) Human full length PARIS cDNA (IMAGE: 30347892; Open Biosystems) (SEQ ID NO: 9) is cloned into BamH1 and EcoR1 restriction sites of a mammalian gene expression vector, pCMV-Tag2A (Stratagene). The pCMV-Tag2A vector is a plasmid-derived mammalian expression vector for tagging proteins with an N-terminal FLAG epitope. A QuikChange site-directed mutagenesis kit (Stratagene) is used to prepare pCMV-PARIS C631S, in which a PARIS C631S gene mutant obtained by substituting serine for the cysteine residue at position 631 of human PARIS is cloned into BamHI and EcoRI restriction sites of pCMV-Tag2A (Stratagene). After preparation of the mutant gene, the gene is introduced into pCMV to prepare an overexpression vector. To prepare the PARIS C631S gene, a pair of primers (SEQ ID NOS: 12 and 13) is used. Thereafter, a nucleotide sequence of the PARIS C631S gene thus prepared is confirmed by automated DNA sequencing.
(§4) In the case of PARIS C631S mutant, no farnesylation occurs. […] In FIG. 5C, − represents C2C12 myoblasts introduced with no PARIS gene, and WT and MT represent C2C12 myoblasts introduced with the wild-type PARIS gene and the mutant PARIS gene, that is, PARIS C631S gene, respectively. […]

Data set [3] concerns the target T2, human PARIS (WT, C631S) (Homo sapiens, UniProt Q6NUN9).
T2 construct: Human full length PARIS cDNA (IMAGE: 30347892); expressed in transfected cells; host or cells: C2C12 myoblasts, pCMV-Tag2A (Stratagene)
The description is as above. The format is cell-based. The settings on record: C2C12 with FLAG-PARIS WT, 0.1 uM farnesol, 24 hours. As to the method: as §2, §3, §4

A short description of data set [4]: GA muscle mass, lean mass and heart mass of mice according to farnesol administration. The format is in vivo, mouse. The method, then: 22-month-old female mice (weighing 30 g) are fed with a control diet and a farnesol diet for 4 months. That is, 22-month-old mice are fed for 4 months, and then 26-month-old mice are analyzed.
For a further data set, the system named is PARIS, PGC-1α. As to the kind of experiment: Western blotting of hind limb muscles, high fat diet for 3 months. The settings on record: high fat diet with 0.5% compound. The format is in vivo, mouse.
Description: as §1

[5] abbreviates: old animal, farnesol diet 4 months.

The values below come from patent publication US10780061B2, “Composition comprising farnesol and use thereof” (Daegu Gyongbuk Institute of Science and Technology, priority 2014, dated 2020).

T2 sequence (Q6NUN9 whole entry C631S): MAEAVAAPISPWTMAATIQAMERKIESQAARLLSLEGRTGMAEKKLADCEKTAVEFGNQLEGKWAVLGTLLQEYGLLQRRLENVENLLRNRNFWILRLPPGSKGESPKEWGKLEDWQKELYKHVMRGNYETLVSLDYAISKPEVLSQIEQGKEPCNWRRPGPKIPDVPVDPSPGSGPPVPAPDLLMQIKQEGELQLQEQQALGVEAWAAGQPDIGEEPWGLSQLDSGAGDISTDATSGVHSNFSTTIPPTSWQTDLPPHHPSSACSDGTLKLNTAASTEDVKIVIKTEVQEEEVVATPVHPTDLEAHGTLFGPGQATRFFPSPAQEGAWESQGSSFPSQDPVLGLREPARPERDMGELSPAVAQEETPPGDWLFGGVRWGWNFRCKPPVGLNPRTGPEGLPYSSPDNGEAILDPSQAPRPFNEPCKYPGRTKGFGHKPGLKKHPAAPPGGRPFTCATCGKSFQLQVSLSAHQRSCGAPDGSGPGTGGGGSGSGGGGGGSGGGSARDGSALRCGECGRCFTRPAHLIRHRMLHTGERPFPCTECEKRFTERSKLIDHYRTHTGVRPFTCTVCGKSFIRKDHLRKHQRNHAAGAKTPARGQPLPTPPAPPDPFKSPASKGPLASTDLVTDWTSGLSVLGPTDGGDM
T1 sequence (Q6NUN9 whole entry C631S): as above

Consider `CC(C)=CCC/C(C)=C/CC/C(C)=C/CO` [farnesol, (2E,6E)-3,7,11-trimethyldodeca-2,6,10-trien-1-ol], for which the “percentage of muscle fibers showing increased SDH enzyme activity” value with SDH enzyme activity is on record as “increased”. Also, the “reduction in mitochondrial enzyme activity (SDH), AAV-PARIS WT-introduced muscles” value in data set [1] was “inhibits a reduction”. For the same compound, the “PGC-1α level, PARIS C631S mutant” value on human PARIS (WT, C631S) [2] is given as “does not affect”. Besides, at human PARIS (WT, C631S) [3], the “PGC-1α level, PARIS WT” value was “PGC-1α increase” and the “farnesylation of PARIS WT” value is “increased”. Further, in data set [4] (setting [5]), the GA muscle mass worked out at 0.099 g, the “heart mass (versus control old animal)” value was 0.156 g and the lean mass is 15.3 g. The “side effects such as muscular hypertrophy” value in data set [4] (old animals, farnesol diet 4 months) is listed as “does not cause side effects such as muscular hypertrophy”. The “heart mass (versus control young animal)” value in data set [4] (printed as farnesol old animal, compared with control young animal) is 0.115 g. Further, in the data set with PARIS, PGC-1α, the “decreased PGC-1α expression by high fat diet” value is given as “inhibited” and the “increased PARIS level by high fat diet” value is “inhibited”.
